We go through three compounds from patent US20100310561A1, “NATRIURETIC FUSION PROTEINS” (BOEHRINGER INGELHEIM INTERNATIONAL GMBH, priority 2007, published 2010).

The test system of data set [1] is Dog NPRA. Put plainly: cGMP assay, canine NPRA expressing 293 cells. The class given is cell-based. As to the method: (§1) Natriuretic peptides of >95% HPLC purity were obtained from Sigma. HEK293 NPRA cells grown to 90% confluence were harvested using HANKS based Cell Dissociation Medium (GIBCO). Cells were washed and resuspended at 3.3×10^5 cells per mL in pre warmed Dulbecco's PBS, pH 7.4, 25 mM HEPES, 0.1% BSA, 500 μM 3-Isobutyl-1-methylxanthine (IBMX) [Assay Buffer]. Assays were performed in Optiplate-96 White Opaque 96-well Microplates (Perkin Elmer). 15 μL of cell suspension is added to 15 μL of 2× fusion protein in Assay Buffer in triplicate and incubated for 20 minutes at 37° C. The cGMP concentration was measured using the HitHunter™ cGMP Assay Kit (DiscoveRx Corporation). cGMP production dose response curves were generated with a four parameter logistic equation fitted using the Levenburg Marquardt algorithm in XLfit4.2 data analysis software (ID Business Solutions, Ltd.).
Human ANP28 peptide was assayed for cGMP production in species specific NPRA transfected 293 or 293T cells. Dose response curves for cGMP production stimulated by human ANP28 peptide in rat NPRA (rNPRA) expressing 293T cells and human NPRA (hNPRA) and canine NPRA (caNPRA) expressing 293 cells are shown in FIG. 2.
The selectivity of the recombinant ANP-Fc fusion proteins was assessed by analyzing their efficacy in NPRB expressing cell lines. […]

Data set [2] relates to Monkey NPRA. Put plainly: cGMP assay, monkey NPRA expressing HEK293 cells. The class given is cell-based. The note with it: Table 4. The method, then: as §1
The selectivity of the recombinant ANP-Fc fusion proteins was assessed by analyzing their efficacy in NPRB expressing cell lines. The species cross-reactivity of the ANP-Fc fusion proteins was tested in rat, canine, and monkey NPRA expressing HEK293 cell lines. The ANP-Fc fusions tested have good cross-reactivity in the rat, canine, and monkey NPRA mediated cGMP assays (Table 4). The ANP-Fc fusion proteins have nearly equivalent dose response values when tested in human, dog and monkey expressing NPRA cells. […]

For data set [3] the following is noted: humans; Potter et al.; cited from earlier work.
For data set [4], the target named is T1, human NPRA (Homo sapiens, UniProt P16066).
T1 sequence (P16066 33-1061): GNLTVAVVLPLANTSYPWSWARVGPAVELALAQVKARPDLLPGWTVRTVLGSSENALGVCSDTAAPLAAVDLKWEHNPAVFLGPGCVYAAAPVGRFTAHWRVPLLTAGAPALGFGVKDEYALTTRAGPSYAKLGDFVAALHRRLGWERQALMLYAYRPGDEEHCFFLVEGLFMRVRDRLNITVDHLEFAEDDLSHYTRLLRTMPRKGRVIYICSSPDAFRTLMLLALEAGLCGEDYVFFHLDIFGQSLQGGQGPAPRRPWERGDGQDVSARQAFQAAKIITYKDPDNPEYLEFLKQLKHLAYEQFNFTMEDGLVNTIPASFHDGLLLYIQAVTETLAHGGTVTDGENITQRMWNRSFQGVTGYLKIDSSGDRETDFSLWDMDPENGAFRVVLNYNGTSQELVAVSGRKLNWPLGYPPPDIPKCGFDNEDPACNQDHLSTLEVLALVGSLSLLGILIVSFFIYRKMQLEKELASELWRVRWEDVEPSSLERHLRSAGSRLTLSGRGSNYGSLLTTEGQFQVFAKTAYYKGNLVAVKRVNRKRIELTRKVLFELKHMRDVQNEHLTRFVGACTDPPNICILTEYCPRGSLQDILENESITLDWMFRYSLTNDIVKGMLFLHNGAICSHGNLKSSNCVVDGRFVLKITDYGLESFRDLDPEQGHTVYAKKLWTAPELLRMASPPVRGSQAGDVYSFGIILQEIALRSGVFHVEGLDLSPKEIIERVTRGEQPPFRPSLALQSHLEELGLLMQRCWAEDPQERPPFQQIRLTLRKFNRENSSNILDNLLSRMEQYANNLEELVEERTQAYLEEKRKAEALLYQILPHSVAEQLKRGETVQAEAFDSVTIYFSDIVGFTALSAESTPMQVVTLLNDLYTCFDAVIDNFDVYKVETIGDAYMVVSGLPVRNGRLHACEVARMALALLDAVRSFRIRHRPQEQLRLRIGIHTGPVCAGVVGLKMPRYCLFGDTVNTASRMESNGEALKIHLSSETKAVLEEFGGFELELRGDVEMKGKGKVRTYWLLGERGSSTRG
The data set can be described thus: Natriuretic peptide fusion protein induced cGMP assay, human NPRA transfected HEK293 cells. The class given is cell-based. From the text: Full-length human NPRA, human NPRB, and human […] (NPRC) sequence containing plasmids were purchased from OriGene Technologies, Inc. (Rockville, Md.) then sub-cloned into pcDNA3.1 directional mammalian expression vector (Invitrogen). Insert orientation and nucleotide sequence of each construct was verified by an outside vendor (SeqWright, Inc.). The pcDNA3.1 NPR clones were transfected using Lipofectamine (Invitrogen) into HEK293 cells where stable cell lines expressing human NPRA, human NPRB, or human NPRC are selected using G418. Clones were screened using the natriuretic peptide induced cGMP assay described below. (NPRA clones were treated with human ANP while NPRB clones were treated with human CNP (Sigma)). High cGMP producing clones were expanded. NPRC clones were screened using a ^125I ANP binding assay. ^125I ANP high binders were expanded. […]
Natriuretic peptides of >95% HPLC purity were obtained from Sigma. […] The cGMP concentration was measured using the HitHunter™ cGMP Assay Kit (DiscoveRx Corporation). cGMP production dose response curves were generated with a four parameter logistic equation fitted using the Levenburg Marquardt algorithm in XLfit4.2 data analysis software (ID Business Solutions, Ltd.).
Results 1 from both Labs 1 and 2 were generated by interpreting the raw Relative Luminescence Units (RLU). […]

The EC50 is the midpoint of the concentration-response curve.

Like-named read-outs stand apart in the source and are kept apart here.

As for `CC[C@H](C)[C@@H]1NC(=O)[C@H](CCCNC(=N)N)NC(=O)[C@H](CC(=O)O)NC(=O)[C@H](CCSC)NC(=O)[C@H](CCCNC(=N)N)NC(=O)CNC(=O)CNC(=O)[C@H](Cc2ccccc2)NC(=O)[C@@H](NC(=O)[C@H](CO)NC(=O)[C@H](CO)NC(=O)[C@H](CCCNC(=N)N)NC(=O)[C@H](CCCNC(=N)N)NC(=O)[C@H](CC(C)C)NC(=O)[C@@H](N)CO)CSSC[C@@H](C(=O)N[C@@H](CC(N)=O)C(=O)N[C@@H](CO)C(=O)N[C@@H](Cc2ccccc2)C(=O)N[C@@H](CCCNC(=N)N)C(=O)N[C@@H](Cc2ccc(O)cc2)C(=O)O)NC(=O)CNC(=O)[C@H](CC(C)C)NC(=O)CNC(=O)[C@H](CO)NC(=O)[C@H](CCC(N)=O)NC(=O)[C@H](C)NC(=O)CNC1=O` [Construct 1, ANPXY], the concentration for a half-maximal effect (EC50) in data set [1] (Table 4, read-out: cGMP EC50 (nM) Dog NPRA) was found to be 1.3 nM; in data set [1] (caNPRA 293 cells, read-out: Mean EC50 nM, cGMP-caNPRA 293) it was 1.34 nM; in data set [2], 0.5 nM.

Turning to BNP: B-type natriuretic peptide, in data set [3], the plasma half life entry is recorded as “approximately 20 minutes”. With “Wild-type rat ANP: rat atrial natriuretic peptide, differs from human ANP by one amino acid (SLRRSSCFGGRIDRIGAQSGLGCNSFRY) [reference compound]”, the “EC50 compared with human ANP in the human NPRA cGMP assay” value in data set [4] is recorded as “slightly higher”.
